Measured values reported in ChEMBL document CHEMBL2040706, “Inhibition of hepatitis C virus NS3 helicase by manoalide” (J Nat Prod, 2012).
Activity calls are given as the source filed them. The calls are words filed in the database; no cut-off is given here.

What was measured:
[1] = Inhibition of HCV NS3 RNA helicase activity using [32Pgamma]-labelled partial duplex RNA as substrate incubated for 15 mins prior to ATP addition measured after 30 mins by PAGE analysis; design: species or system Hepacivirus hominis
Hepacivirus hominis [2] = test: Noncompetitive inhibition of HCV NS3 ATPase activity using 1 to 8 mM [32gamma]ATP at 0.1 mM by Lineweaver-Burk plot analysis
Hepacivirus hominis [3] = test: Inhibition of HCV NS3 ATPase activity using [32Pgamma]ATP as substrate at 0.1 mM after 60 mins by thin layer chromatography analysis in the absence of poly(U)RNA
[4] = target: T1, ATP-dependent DNA/RNA helicase DHX36 (Homo sapiens) (UniProt Q9H2U1); test: Inhibition of human DHX36/RHAU ATPase activity using [32Pgamma]ATP as substrate for 30 mins in the presence of poly(U)RNA
T1 sequence (whole entry): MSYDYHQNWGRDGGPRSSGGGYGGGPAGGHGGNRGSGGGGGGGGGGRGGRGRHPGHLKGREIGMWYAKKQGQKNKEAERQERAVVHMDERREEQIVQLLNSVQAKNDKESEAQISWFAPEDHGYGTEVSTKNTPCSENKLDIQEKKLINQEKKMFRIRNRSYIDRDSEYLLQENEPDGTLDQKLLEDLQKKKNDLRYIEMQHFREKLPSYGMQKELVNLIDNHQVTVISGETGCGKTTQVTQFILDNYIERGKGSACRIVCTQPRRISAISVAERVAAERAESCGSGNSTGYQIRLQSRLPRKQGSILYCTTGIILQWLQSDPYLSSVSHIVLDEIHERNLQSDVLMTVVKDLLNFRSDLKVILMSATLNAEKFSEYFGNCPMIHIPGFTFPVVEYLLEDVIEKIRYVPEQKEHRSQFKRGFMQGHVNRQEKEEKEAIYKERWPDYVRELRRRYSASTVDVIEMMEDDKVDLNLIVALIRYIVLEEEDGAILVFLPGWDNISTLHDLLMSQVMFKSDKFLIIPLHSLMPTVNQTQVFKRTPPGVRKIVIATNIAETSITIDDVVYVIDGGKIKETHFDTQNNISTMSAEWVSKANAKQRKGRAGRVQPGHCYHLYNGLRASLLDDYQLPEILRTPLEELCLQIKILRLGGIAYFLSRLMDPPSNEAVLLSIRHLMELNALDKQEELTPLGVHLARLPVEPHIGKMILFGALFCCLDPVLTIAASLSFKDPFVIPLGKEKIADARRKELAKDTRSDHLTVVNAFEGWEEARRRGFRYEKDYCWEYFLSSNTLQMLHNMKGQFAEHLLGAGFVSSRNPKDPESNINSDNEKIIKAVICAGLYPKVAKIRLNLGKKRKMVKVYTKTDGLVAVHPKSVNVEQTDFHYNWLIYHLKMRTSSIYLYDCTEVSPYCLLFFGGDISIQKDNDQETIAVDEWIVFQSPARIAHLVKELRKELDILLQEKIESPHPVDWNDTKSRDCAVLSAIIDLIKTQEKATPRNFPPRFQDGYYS

Hepacivirus hominis [5] = test: (§1) Inhibition of HCV NS3 ATPase activity using [32gamma]ATP as substrate after 30 mins by thin layer chromatography analysis in the presence of poly(U)RNA
[6] = as §1; design: species or system Hepacivirus hominis
Hepacivirus hominis [7] = test: Inhibition of HCV NS3 RNA helicase activity using […] as substrate measured every 5 secs for 5 mins and every 30 secs up to 30 mins by photoinduced electron transfer-based fluorescence assay
Hepacivirus hominis [8] = test: Binding affinity to HCV NS3 helicase assessed as increase in fluorescence after 15 mins by isothermal denaturation assay
Hepacivirus hominis [9] = test: Inhibition of HCV NS3 binding to human 5'-[32Pgamma]-labelled lethal-7 microRNA precursor ssRNA at 0.1 mM after 15 mins by PAGE analysis

With `CC1=C(CC/C(C)=C/CCC2=CC[C@H](C3=CC(=O)O[C@H]3O)O[C@H]2O)C(C)(C)CCC1` [MANOALIDE] the IC50 [1] was 15 µM, the inhibition (Hepacivirus hominis [2]) was “Active” and the inhibition (Hepacivirus hominis [3]) was “Active”. For the same compound, the inhibition [4] was “Active”, the inhibition (Hepacivirus hominis [5]) was “Dose-dependent effect” and the IC50 [6] was 70 µM. The inhibition (Hepacivirus hominis [7]) was “Active”, the Activity (Hepacivirus hominis [8]) was “Dose-dependent effect” and the inhibition (Hepacivirus hominis [9]) was “Active”.
